Measured values taken from patent US5393755A, “Polycyclic guanine derivatives” (priority 1992, dated 1995).

Legend:
[1] = biological target: cGMP phosphodiesterase (cGMP-PDE) (Bos taurus, UniProt Q28156); assay: biochemical; design: species or system bovine (lung); conditions: 1 μM 3H-cGMP substrate, pH 7.5, 25 minutes, room temperature
Method: (§1) Compounds are evaluated for inhibition of two phosphodiesterase enzymes which hydrolyze cyclic guanosine monophosphate (cGMP). The first enzyme, calcium-calmodulin dependent phosphodiesterase (CaM-PDE), is a partially pure enzyme obtained from bovine aorta homogenates and purified by DEAE-cellulose and calmodulin-affinity chromatography. The enzyme is activated several fold by Ca-calmodulin and is selective for cGMP, although it will also hydrolyze cAMP. […] Bovine aorta homogenates and primary cultures of bovine aortic endothelial and vascular smooth muscle cells contain an enzyme with properties very similar to the lung isozyme.
(§2) The enzyme assay is performed using a Biomek Automated Pipetting Station. Compounds are dissolved in distilled water or DMSO and diluted with 10% DMSO.
(§3) Assays contain the following components:
(§4) 50 mM Tris-HCl, pH 7.5, 5 mM magnesium chloride
(§5) 0.5 mg/ml snake venom alkaline phosphatase
(§6) Assays are initiated by addition of enzyme and stopped by addition of 10 mM isobutylmethylxanthine, a general phosphodiesterase inhibitor. Assays are performed for 25 minutes at room temperature to achieve 5-10% hydrolysis of substrate. The negatively charged substrates are then separated from guanosine by binding to an anion-exchange resin (AG1-X8) and centrifugation or filtration, and the product is quantitated by scintillation counting in counts per minute (cpm) of the remaining soluble material. Percent inhibition is calculated as follows:
(§7) % Inhibition=100-[(cpm compound-blank)/(cpm control-blank)×100]
(§8) Activity is expresssed as the IC50 value, i.e. the concentration required to inhibit activity of enzyme by 50 per cent.

[2] = biological target: T1, calcium-calmodulin dependent phosphodiesterase (CaM-PDE) (Bos taurus, UniProt P14100); assay: Phosphodiesterase Inhibition In Vitro: CaM-PDE; type: biochemical, bovine (aorta); conditions: 1 μM 3H-cGMP substrate, pH 7.5, 25 minutes, room temperature, with calmodulin and CaCl2
T1 construct: partially pure enzyme obtained from bovine aorta homogenates; from tissue; host or cells: bovine aorta homogenates
Method: as §1, §2, §3, §4, §5
0.1 μM Calmodulin and 1 mM CaCl2 (for CaM-PDE only)
as §6, §7, §8

[3] = tested on: spontaneously hypertensive rats (SHR); assay: Antihypertensive Activity in Rats (conscious SHR, oral); type: in vivo, rat (spontaneously hypertensive; conditions: fasted SHR males
Source text: The present compounds are useful in inhibiting the phosphodiesterase enzymes. These phosphodiesterase enzymes are known to hydrolyze cGMP in smooth muscle. High levels of cGMP are associated with the relaxation of vascular smooth muscle, with a consequent subsequent reduction in blood pressure. Thus, it is believed that by inhibiting these phosphodiesterase enzymes, cGMP levels in muscle will be either maintained or increased with a subsequent reduction in blood pressure. In vivo antihypertensive activity is determined orally in spontaneously hypertensive rats (SHR). The ability of the compounds of the present invention to lower blood pressure can be assessed in vivo in conscious spontaneously hypertensive rats (SHR). SHR males are purchased from Taconic Farms, Germantown, N.Y. and are approximately 16-18 weeks old when anesthetized with ether. The caudal (ventral tail) artery is cannulated with polyethylene tubing (PE50) and blood pressure and heart rate are recorded as described by Baum, T. et. al, J. Cardiovasc. Pharmacol. Vol 5, pp. 655-667, (1983). Rats are placed into plastic cylindrical cages where they rapidly recover consciousness. Blood pressure and heart rate are allowed to stabilize for approximately 90 minutes prior to compound administration. Compounds are administered orally as solutions or suspensions in 0.4% aqueous methylcellulose vehicle via a feeding needle. […] Activity is expressed as the fall in mean blood pressure (MBP) in millimeters of mercury (mm Hg). Compound-induced changes are compared with the changes in an appropriate placebo group.

Question: How did the IC50 [1] turn out when `CN1C(=O)c2c(ncn2Cc2ccccc2)N2C1=N[C@@H]1CCC[C@@H]12` (relative stereo) [Example 1, cis-5,6a,7,8,9,9a-Hexahydro-5-methyl-3-(phenylmethyl)cyclopent[4,5]imidazo[2,1-b]purin-4-one] was run?
Answer: The IC50 was 400 nM.

Question: And the IC50 [2]?
Answer: Its IC50 is 300 nM.

Question: And the “SHR Antihypertensive Fall in MBP” value ([3]; Dose 25 mpk)?
Answer: Its value is 30 mmHg.

Question: How did the IC50 [1] turn out when `CN1C(=O)c2c(ncn2Cc2ccccc2)N2C1=N[C@@H]1CCCC[C@@H]12` (relative stereo) [Example 3, cis-6a,7,8,9,10,10a-Hexahydro-5-methyl-3-(phenylmethyl)-3H-benzimidazo[2,1-b]purin-4(5H)-one] was run?
Answer: Its IC50 is 1400 nM.

Question: And the IC50 [2]?
Answer: The IC50 was 100 nM.

Question: What about the “SHR Antihypertensive Fall in MBP” value ([3]; Dose 25 mpk) of the same compound?
Answer: The value was 22 mmHg.

Question: For `Cc1nc2c(n1Cc1ccccc1)C(=O)N(C)C1=N[C@@H]3CCC[C@@H]3N12` (relative stereo) [Example 9, cis-5,6a,7,8,9,9a-Hexahydro-2,5-dimethyl-3-(phenylmethyl)cyclopent[4,5]imidazo[2,1-b]purin-4-(3H)-one], which IC50 [2] is on record?
Answer: Its IC50 is 600 nM.

Question: What about the “SHR Antihypertensive Fall in MBP” value ([3]; Dose 25 mpk) of the same compound?
Answer: Its value is 36 mmHg.

Question: For `Cc1nc2c(n1Cc1ccccc1)C(=O)N(C)C1=N[C@@H]3CCCC[C@@H]3N12` (relative stereo) [Example 12, cis-6a,7,8,9,10,10a-Hexahydro-2,5-dimethyl-3-(phenylmethyl)-3H-benzimidazo[2,1-b]purin-4(5H)-one], which IC50 [1] is on record?
Answer: Its IC50 is 200 nM.

Question: And the IC50 [2]?
Answer: Its IC50 is 200 nM.

Question: What about the “SHR Antihypertensive Fall in MBP” value ([3]; Dose 25 mpk) of the same compound?
Answer: Its value is 38 mmHg.

Question: Which IC50 [1] does the source give for `Cc1nc2c(n1Cc1ccccc1)C(=O)N(C)C1=N[C@@H]3CCCCC[C@@H]3N12` (relative stereo) [Example 14, cis-5,6a,7,8,9,9a-Hexahydro-2,5-dimethyl-3-(phenylmethyl)cyclohept[6,7]imidazo[2,1-b]purin-4(3H)-one] here?
Answer: Its IC50 is 900 nM.

Question: What about the IC50 [2] of the same compound?
Answer: The IC50 was 300 nM.

Question: And the “SHR Antihypertensive Fall in MBP” value ([3]; Dose 25 mpk)?
Answer: The value was 20 mmHg.

Question: Which results are given for `CCc1nc2c(n1Cc1ccccc1)C(=O)N(C)C1=N[C@@H]3CCCC[C@@H]3N12` (relative stereo) [Example 16, cis-6a,7,8,9,10,10a-Hexahydro-5-methyl-2-ethyl-3-(phenylmethyl)-3H-benzimidazo[2,1-b]purin-4(5H)-one]?
Answer: IC50 [1]: 3000 nM; IC50 [2]: 100 nM; SHR Antihypertensive Fall in MBP ([3]; Dose 25 mpk): 23 mmHg

Question: What does the source list for `CN1C(=S)c2c(ncn2Cc2ccccc2)N2C1=N[C@@H]1CCC[C@@H]12` (relative stereo) [Example 20, cis-5,6a,7,8,9,9a-Hexahydro-5-methyl-3-(phenylmethyl)cyclopenta[4,5]imidazo[2,1-b]purin-4(3H)-thione]?
Answer: IC50 [1]: 400 nM; IC50 [2]: 40 nM; SHR Antihypertensive Fall in MBP ([3]; Dose 25 mpk): 6 mmHg

Question: For `CN1C(=O)c2c(ncn2Cc2ccc(Cl)cc2)N2C1=N[C@@H]1CCC[C@@H]12` (relative stereo) [Example 21, cis-5,6a,7,8,9,9a-Hexahydro-5-methyl-3-(4-chlorophenylmethyl)cyclopenta[4,5]imidazo[2,1-b]purin-4(3H)-one], which IC50 [1] is on record?
Answer: The IC50 was 400 nM.

Question: What about the IC50 [2] of the same compound?
Answer: The IC50 was 3300 nM.

Question: What about the “SHR Antihypertensive Fall in MBP” value ([3]; Dose 25 mpk) of the same compound?
Answer: Its value is 20 mmHg.

Question: Which IC50 [1] does the source give for `CN1C(=O)c2c(ncn2CC2CCCCC2)N2C1=N[C@@H]1CCC[C@@H]12` (relative stereo) [Example 22, cis-5,6a,7,8,9,9a-Hexahydro-5-methyl-3-(cyclohexylmethyl)cyclopent[4,5]imidazo[2,1-b]purin-4(3H)-one] here?
Answer: Its IC50 is 200 nM.

Question: What about the IC50 [2] of the same compound?
Answer: The IC50 was 200 nM.

Question: And the “SHR Antihypertensive Fall in MBP” value ([3]; Dose 25 mpk)?
Answer: The value was 15 mmHg.

Question: What does the source list for `COC(=O)c1nc2c(n1Cc1ccccc1)C(=O)N(C)C1=N[C@@H]3CCC[C@@H]3N12` (relative stereo) [Example 28, cis-3,4,5,6a,7,8,9,9a-Octahydro-5-methyl-4-oxo-3-(phenylmethyl)cyclopent[4,5]imidazo[2,1-b]purin-2-carboxylic acid, methyl ester]?
Answer: IC50 [1]: 200 nM; IC50 [2]: 200 nM; SHR Antihypertensive Fall in MBP ([3]; Dose 25 mpk): 19 mmHg

Question: Which results are given for `Cc1nc2c(n1Cc1ccccc1)C(=O)N(C)C1=NC34CCCC3CCC4N12` (single isomer, unassigned; (+)) [Example 39, (+) 6a,7,8,9,9a,10,11,11a-Octahydro-2,5-dimethyl-3-phenylmethyl-3H-pentaleno[6a',1':4,5]imidazo[2,1-b]purin-4(5H)-one]?
Answer: IC50 [1]: 100 nM; IC50 [2]: 100 nM; SHR Antihypertensive Fall in MBP ([3]; Dose 25 mpk): 40 mmHg

Question: Which IC50 [1] does the source give for `Cc1nc2c([nH]1)C(=O)N(C)C1=NC34CCCC3CCC4N12.Cl` (single isomer, unassigned; (+)) [Example 41a, (+)-6a,7,8,9,9a,10,11,11a-Octahydro-2,5-dimethyl-3H-pentaleno[6a',1':4,5]imidazo[2,1-b]purin-4(5H)-one, hydrochloride] here?
Answer: Its IC50 is 100 nM.

Question: What about the IC50 [2] of the same compound?
Answer: Its IC50 is 200 nM.

Question: What about the “SHR Antihypertensive Fall in MBP” value ([3]; Dose 5 mpk) of the same compound?
Answer: The value was 45 mmHg.

Question: And the “SHR Antihypertensive Fall in MBP” value ([3]; Dose 10 mpk)?
Answer: Its value is 52 mmHg.

Question: What about the “SHR Antihypertensive Fall in MBP” value ([3]; Dose 25 mpk) of the same compound?
Answer: The value was 67 mmHg.

Question: How did the IC50 [2] turn out when `Cc1nc2c(n1Cc1ccccc1)C(=O)N(C)C1=N[C@@H]3CCC[C@@H]3N12` [Example 10, 5,6a(R),7,8,9,9a(S)-Hexahydro-2,5-dimethyl-3-(phenylmethyl)cyclopent[4,5]imidazo[2,1-b]purin-4(3H)-one] was run?
Answer: Its IC50 is 300 nM.

Question: What about the “SHR Antihypertensive Fall in MBP” value ([3]; Dose 25 mpk) of the same compound?
Answer: Its value is 45 mmHg.

Question: `Cc1nc2c([nH]1)C(=O)N(C)C1=N[C@@H]3CCC[C@@H]3N12` [Example 19a, cis-5,6a(R),7,8,9,9a(S)-Hexahydro-2,5-di-methylcyclopent[4,5]imidazo[2,1-b]purin-4(3H)-one] was tested. Which IC50 [1] did it give?
Answer: The IC50 was 300 nM.

Question: What about the IC50 [2] of the same compound?
Answer: Its IC50 is 3000 nM.

Question: What about the “SHR Antihypertensive Fall in MBP” value ([3]; Dose 25 mpk) of the same compound?
Answer: The value was 40 mmHg.

Question: `CN1C(=O)c2c(ncn2Cc2ccccc2)N2CC3(CCCC3)N=C12` [Example 34, 5'-Methyl-3'-(phenylmethyl)-spiro[cyclopentane-1,7'(8'H)-(3'H)-imidazo[2,1-b]purin]-4'(5'H)one] was tested. Which IC50 [1] did it give?
Answer: Its IC50 is 100 nM.

Question: And the IC50 [2]?
Answer: Its IC50 is 100 nM.

Question: What about the “SHR Antihypertensive Fall in MBP” value ([3]; Dose 25 mpk) of the same compound?
Answer: Its value is 40 mmHg.

Question: For `Cc1nc2c(n1Cc1ccccc1)C(=O)N(C)C1=NC3(CCCC3)CN12` [Example 34a, 2',5'-Dimethyl-3'-(phenylmethyl)spiro[cyclopentane-1,7'(8'H)-(3'H)-imidazo[2,1-b]purin]-4'(5'H)one], which IC50 [1] is on record?
Answer: The IC50 was 800 nM.

Question: And the IC50 [2]?
Answer: Its IC50 is 300 nM.

Question: What about the “SHR Antihypertensive Fall in MBP” value ([3]; Dose 25 mpk) of the same compound?
Answer: The value was 58 mmHg.

Question: Which results are given for `CN1C(=O)c2c(ncn2Cc2ccccc2)N2C1=N[C@@H]1CCC[C@@H]12` [Example 35, cis-5,6a(R),7,8,9,9a(S)-Hexahydro-5-methyl-3-(phenylmethyl)cyclopent[4,5]imidazo[2,1-b]purin-4(3H)one]?
Answer: IC50 [1]: 300 nM; IC50 [2]: 400 nM; SHR Antihypertensive Fall in MBP ([3]; Dose 25 mpk): 41 mmHg
